A short description of the series: Human HepG2 cell viability assay in 384 well format. The format is toxicity, cell-based. Set-up: dose 125 nL, time 70.5 hour; concentration not given beside the values. Particulars: HepG2 cells, read-out: Inhibition.

Regarding `Cc1nc(C(=O)N2CCc3[nH]nc(Nc4ccccc4)c3C2)co1`, the cytotoxicity at 70.5 h is -1.67%.
To `Cc1ccnc(C2(C)CCCN2S(=O)(=O)c2cccnc2)n1` (stereo not drawn) belongs -3.08%; to `Cc1ccnc(C2(C)CCCN2S(=O)(=O)c2c(C)noc2C)n1` (stereo not drawn), 1.94%.
Regarding `Cc1ccnc(C2CN(Cc3ccc(-c4ccccc4C(=O)O)o3)C2)n1`, the cytotoxicity at 70.5 h was -0.616%.
To `O=C(CCn1cccn1)N1CCC(c2nnc(-c3ccccn3)o2)CC1` belongs 3.01%.
To `O=C(CC1CCCC1)N1CCC(c2nnc(-c3ccccn3)o2)CC1` belongs 31.3%; to `O=C(c1ccncc1)N1CCc2[nH]nc(Nc3ccccc3)c2C1`, 21.7%.
On to `Cc1cc(C(F)F)nn1C(C)C(=O)NCc1nccn1C` (stereo not drawn), for which the cytotoxicity at 70.5 h was -0.123%.
To `CC(C)(C)Nc1c(C2CCN(C(=O)C3CC3)CC2)nc2ccccn12` belongs 17.8%; to `Cn1ncc(Cl)c1C(=O)NCCN1CCC(O)(c2ccc(F)cc2)CC1`, 5.46%; to `O[C@H]1CCN(CCCOc2ccccc2F)C[C@@]12CCCO2`, 18.1%.
In the case of `c1cc(C2CCN(c3cncnc3)CC2)ccn1`, the cytotoxicity at 70.5 h was 1.76%.
To `CC(C)N1CCC(c2cnc(-c3cn[nH]c3)cn2)CC1` belongs 2.32%; to `O=C1N[C@H]2OCCC[C@H]2[C@H](c2ccc(C(=O)O)cc2)N1`, 12.6%.
To `O=C(O)c1ccccc1-n1cc(CN2CCOC(c3cc[nH]n3)C2)cn1` (stereo not drawn) belongs -12.9%; to `CCC(=O)N1CCCCC1c1nc(O)c2c(n1)CN(S(C)(=O)=O)CC2` (stereo not drawn), 12.1%; to `CCC(=O)N1CCCCC1c1nc(O)c2c(n1)CN(C(C)=O)CC2` (stereo not drawn), -2.47%.
`Cn1cnc(NC(=O)C2CC(=O)N(c3cccc(F)c3)C2)n1` (stereo not drawn): the cytotoxicity at 70.5 h came out at 18.3%.
To `COc1ccc2c(c1)CC(C1CCOCC1)N(C(=O)c1cnccn1)C2` (stereo not drawn) belongs 0.645%.
Consider `Cc1cc(C)nc(Nc2cc(C)nc(C3CCN(C(=O)CO)C3)n2)n1` (stereo not drawn), for which the cytotoxicity at 70.5 h is -7.3%.
To `CCCC(=O)N1CCCCC1c1nc(N(C)C)ncc1-c1cc(C)no1` (stereo not drawn) belongs -2.48%.
To `Cc1nc(-c2ccc(C(=O)O)cc2)cc(C2CCCN(C(C)C)C2)n1` (stereo not drawn) belongs 9.4%; to `O=C(O)c1ccccc1-c1ccc(CN2CCCC(O)C2)cc1` (stereo not drawn), -8.74%; to `Cc1ncncc1C(=O)N1CCCC(Cc2nccs2)C1` (stereo not drawn), -4.31%.
To `O=C(c1cccnc1)N1CCCC(Cc2nccs2)C1` (stereo not drawn) belongs -6.74%.
Regarding `CC(=O)N1C[C@@H](c2ccsc2)[C@@H]2CN(CC3CCCCC3)CC[C@@H]21`, the cytotoxicity at 70.5 h is -5.59%.
In the case of `Cc1nc(-c2ccccc2C(=O)O)cc(C2CCN(C(C)C)C2)n1` (stereo not drawn), the cytotoxicity at 70.5 h was 10.7%.
To `O=C(NC[C@]1(O)CN(Cc2ccc(F)cc2)C[C@H]1O)c1ccccn1` belongs -6.05%; to `CC(=O)N1C[C@@H](c2ccsc2)[C@@H]2CN(Cc3ccccc3Cl)CC[C@@H]21`, -5.99%.
To `COc1cccc(-c2noc(C3CCN(Cc4ccncc4)C3)n2)c1` (stereo not drawn) belongs -3.26%.
For `Cc1nccn1-c1nccnc1C1CCN(Cc2ccc(F)cc2)CC1`, the cytotoxicity at 70.5 h stood at 24.1%.
To `Cc1cnc(Nc2nccnc2C2CCN(C)CC2)s1` belongs -19.6%; to `CN1CCc2nc(C3CCN(C(=O)CCC4CCCC4)CC3)ncc2C1`, -16.6%.
To `CC(=O)Nc1nc(C2CCN(C(C)=O)CC2)cs1` belongs -22%; to `CC(=O)N1CCCC(c2ccc(Nc3nc(C)cc(C)n3)cn2)C1` (stereo not drawn), -12%.
To `O=C(c1cccc(F)c1)N1CCOC(c2nc(-c3ncccn3)no2)C1` (stereo not drawn) belongs -5.4%.
Turning to `Cc1cc(-c2cnc(NCc3cccnc3)nc2C(C)C)on1`, the cytotoxicity at 70.5 h is -25.7%.
Turning to `Cc1cc(-c2cnc(NCc3cccnc3)nc2C(C)(C)C)on1`, the cytotoxicity at 70.5 h is -18.2%.
To `Cc1n[nH]c(C)c1-c1cnc(CC2CCN(C)C2)cn1` (stereo not drawn) belongs -17.7%; to `Cn1nccc1C(=O)N1CCOC(Cc2cccnc2)C1` (stereo not drawn), 16%.
`COCC1CCN(c2cc(C3CN(C)CCO3)nc(C)n2)CC1` (stereo not drawn): the cytotoxicity at 70.5 h was 0.671%.
With `CC(=O)N1CCCC1c1nccnc1Nc1cccc(C)n1` (stereo not drawn), the cytotoxicity at 70.5 h is -16.6%.
To `CC(C)C(=O)N1CCCC(c2ncncc2-c2ccncc2)C1` (stereo not drawn) belongs 13.6%.
To `Cc1cc(C)cc(-c2cccc(CC3(C(=O)O)CCOCC3)c2)c1` belongs 43.6%; to `O=C(NCCCN1CCOCC1)Nc1cnc2cc(Cl)ccc2c1O`, 9.66%; to `CC(C)C(=O)N1CCC(c2nc(O)cc(-c3ccncc3)n2)CC1`, -15.8%.
On to `Cc1cc(C(=O)N2Cc3ccccc3OC3(CCOCC3)C2)nc(N)n1`, for which the cytotoxicity at 70.5 h is -4.81%.
To `O=C(c1ccco1)N1CCCC(c2cc(C(F)F)n3ncnc3n2)C1` (stereo not drawn) belongs -14.3%; to `O=C(c1cncc(Br)c1)N1CCC(O)(Cn2ccc3ccncc32)CC1`, -13.2%; to `O=C(O)C1(Cc2cc(-c3cccc(F)c3)no2)CCOCC1`, -24%.
To `O=C(c1cnco1)N1C[C@@H]2CC[C@H](Oc3ccccc3F)[C@@H]2C1` belongs 40.3%.
To `O=C(c1ccnnc1)N1C[C@@H]2CC[C@H](Oc3cccc(F)c3)[C@@H]2C1` belongs -0.575%.
`COCCN1C(=O)CO[C@H]2CN(Cc3c[nH]nc3-c3ccccc3)C[C@@H]21`: the cytotoxicity at 70.5 h was -9.3%.
To `COc1ccc(CN2CC[C@H](NC(C)=O)[C@@H](O)CC2)c(OC)c1` belongs -17.2%; to `Cc1noc(C)c1-c1cncc(C2CCCN2Cc2ccncc2)n1` (stereo not drawn), -16.4%.
Regarding `NCCn1nc(C2CCN(Cc3ccc(Cl)c(Cl)c3)C2)c2nccnc21` (stereo not drawn), the cytotoxicity at 70.5 h is -4.77%.
To `CNC(=O)C1(CCCc2ccncc2)CCCN1` (stereo not drawn) belongs -7.77%; to `CN(C)c1cncc(C2CCN(CCO)CC2)n1`, -8.74%.
To `COc1cc(CN2CC[C@@]3(CCCO3)[C@@H](O)C2)ccc1F` belongs -7.93%; to `CN1CCN(C(=O)c2cncc(CC3CCCN(C)C3)c2)CC1` (stereo not drawn), 24.9%; to `Cc1noc(C)c1-c1cnc(CC2CCN(C(=O)c3cc[nH]n3)C2)cn1` (stereo not drawn), -12%.
To `Cc1cc(C(F)(F)F)c2c(C3CCN(S(=O)(=O)N(C)C)CC3)noc2n1` belongs -9.87%; to `CC(C)(C)C(=O)N1CCCC1c1nc(O)cc(-c2ccccn2)n1` (stereo not drawn), -8.73%; to `O=C(CC1CCCC1)N1CCCC1c1nc(O)cc(-c2ccccn2)n1` (stereo not drawn), -1.16%.
Consider `Cc1oc(C(=O)Nc2ccccc2F)cc1S(N)(=O)=O`, for which the cytotoxicity at 70.5 h was -10.9%.
To `CCN(CC(C)C#N)C(=O)CNc1ccc(F)c(C)c1` (stereo not drawn) belongs 0.826%; to `Cc1cccc(C)c1NC(=O)c1cc(S(N)(=O)=O)c(C)o1`, 20.8%; to `CCS(=O)(=O)CC(=O)Nc1cc(-c2cccc(F)c2F)n[nH]1`, -9.86%.
For `O=c1n(CCNc2cccc3ccccc23)nc2ccccn12`, the cytotoxicity at 70.5 h was 4.9%.
To `O=C(c1ccoc1)N1CCC(O)(C(F)(F)F)CC1` belongs -12.1%; to `CCOCC(=O)N(C)Cc1nc(C(F)(F)F)cs1`, 20.5%; to `CCN(CC(C)C#N)C(=O)CNc1ccc(C(N)=O)c(C)c1` (stereo not drawn), -1.05%.
To `COc1ccccc1OCCNS(=O)(=O)N1CCOCC1` belongs -11.3%; to `CC(C)c1nn(C)c(Cl)c1CNCCn1cccn1`, 8.25%; to `CCOc1nnc(CN2CCN(CCOC)CC2)s1`, 16.4%.
To `Cc1nc(NC2CCCCC2)cc(C2CCCNC2)n1` (stereo not drawn) belongs 26.4%; to `Cn1ccnc1CNC(=O)c1cnc(C2CCNCC2)cn1`, 28.1%; to `O[C@@H]1CN(Cc2ccc(F)cc2)CC[C@H]1NCc1ccccn1`, 15.4%.
As to `c1ccc(CNc2cc(C3CCCNC3)ccn2)nc1` (stereo not drawn), the cytotoxicity at 70.5 h was determined as 20.2%.
Consider `COc1cccc(Nc2nc(C3CCCNC3)c3sc(C)c(C)n23)c1` (stereo not drawn), for which the cytotoxicity at 70.5 h is -12%.
To `COc1cccc(-c2noc(C3CCN(CC4CCCCC4)C3)n2)c1` (stereo not drawn) belongs 18.2%; to `CS(=O)(=O)c1cncnc1C1CCCNC1` (stereo not drawn), -8.78%; to `Cc1ncsc1C(=O)NCCn1nc(C2CCNC2)c2cccnc21` (stereo not drawn), -14.3%.
To `COCc1ccc(CN2CCC(O)(Cn3ccc4ncccc43)CC2)o1` belongs -8.64%; to `Cc1ccc2c(c1)CN(C(=O)c1ccccc1F)C(CN(C)C)CO2` (stereo not drawn), -24.7%.
As to `CC[C@H](N)Cn1nc(-c2cccs2)oc1=O`, the cytotoxicity at 70.5 h was -26.2%.
To `c1cnc2c(c1)cc(C1CCOCC1)n2CCN1CCOCC1` belongs -11.3%; to `COc1ccc(OCc2sc(C3(O)CCCNCC3)nc2C)cc1` (stereo not drawn), -10.3%.
To `CN(C)c1cc(C2CCCNC2)ccn1` (stereo not drawn) belongs 4.83%; to `NCC(=O)N1CCCC(c2cncc(Nc3ncccn3)n2)C1` (stereo not drawn), -13.9%; to `CCC(CN1CCCC1)NC(=O)C1(c2cccc(F)c2)CC1` (stereo not drawn), -6.19%.
To `CCN1CCN(Cc2ccnc(-c3cccnc3)n2)CC1` belongs -2.52%.
In the case of `Cc1ccc(CN(Cc2c[nH]cn2)C2CC(C)(C)NC(C)(C)C2)o1`, the cytotoxicity at 70.5 h is -9.95%.
To `O[C@@]1(c2ccccn2)CC[C@H]2CN(Cc3cccc(Cl)c3Cl)C[C@H]21` belongs -10.2%.
To `COc1ccc(CN2C[C@H]3CC[C@](O)(c4ccc(C)cn4)[C@H]3C2)c(F)c1` belongs -0.817%; to `c1cncc(-c2nccc(CN3CCCC3)n2)c1`, 3.79%; to `Cc1ccc([C@]2(O)CC[C@H]3CN(Cc4cccc(Cl)c4Cl)C[C@H]32)nc1`, 22.9%.
To `CCN(CC)C(=O)c1cc(C2CCCN2C)ccn1` (stereo not drawn) belongs 4.19%.

These data come from ChEMBL document CHEMBL3507680, “University of Dundee, Gates Library screen for HepG2 cell viability”.
